In US9328106B2, “Cyclic ether pyrazol-4-yl-heterocyclyl-carboxamide compounds and methods of use” (Genentech, Inc., priority 2012, dated 2016):
Like-named read-outs stand apart in the source and are kept apart here.

Columns and labels:
BaF3 parental cells = assay: In vitro cell proliferation, BaF3 parental line + IL3; assay type: cell-based, murine; details: Mus musculus, BaF3, BaF3 parental, mIL-3, incubated overnight, CELL TITER GLO; read-out: Prolif BaF3 IL3 (IC50);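 further: BaF3 parental cells are murine IL-3 dependent pro-B cells grown with 2 ng/mL mIL-3, 384-well format, viability read by luminescence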
BaF3 PIM1 cells = assay: In vitro cell proliferation, BaF3 transfected with PIM1; assay type: cell-based, murine; details: Mus musculus;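 further: murine IL-3-dependent pro-B BaF3 cells transfected with PIM1, compound exposure overnight at 37 °C under 5% CO2, viability read as luminescence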
Experimental: (§1) BaF3 parental line was obtained from the DSMZ repository. […] Media for BaF3 parental line contained RPMI, 10% FBS, 2 mM L-Glutamine, 2 ng/mL mIL-3. Media for BaF3 PIM1 & 2 lines contained RPMI, 10% FBS, 2 mM L-Glutamine, 250 μg/mL. Media for MM1.S (multiple myeloma cells) line contained RPMI, 10% FBS, 2 mM L-Glutamine.
(§2) BaF3, a murine interleukin-3 dependent pro-B cell line, parental cells, BaF3 PIM1 cells, BaF3 PIM2 cells, and MM1.S (multiple myeloma) cells were seeded at 2 k/well, 5 k/well, 5 k/well, and 10 k/well respectively, in a 384-well plate, at 45 μL/well. Test compound was added at 5 μL/well. BaF3 cells (parental and transfected) were incubated overnight, while MM1.S cells were incubated for 72 hours at 37° C., 5% CO2. CELL TITER GLO® Reagent (Promega) was added at 50 μL/well, the plates were incubated for 30 minutes, and their luminescence read on an HT Analyst. IC50/EC50 values for the test compound were calculated.

[1] = test system: MM1.S (multiple myeloma) cells; assay: In vitro cell proliferation, MM1.S multiple myeloma cells; assay type: cell-based; details: Homo sapiens, MM1.S, 72 h, MM1.S cells, 72 hours, CELL TITER GLO; read-out: Prolif MM1S ATP (EC50);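 further: cells cultured in RPMI with 10% FBS and 2 mM L-Glutamine, seeded in 384-well plates, exposed to compound, cell viability measured by luminescence after CellTiter-Glo addition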
Experimental: as §1, §2

PIM1 = PIM1 (Homo sapiens (Human), UniProt P11309); assay: biochemical; assay type: biochemical; details: 20 pM PIM1, 1 μM FAM-peptide, 10 μM ATP, 90 minutes at room temperature; read-out: PIM1 LC3K (KI)
PIM1, sequence (P11309 whole entry): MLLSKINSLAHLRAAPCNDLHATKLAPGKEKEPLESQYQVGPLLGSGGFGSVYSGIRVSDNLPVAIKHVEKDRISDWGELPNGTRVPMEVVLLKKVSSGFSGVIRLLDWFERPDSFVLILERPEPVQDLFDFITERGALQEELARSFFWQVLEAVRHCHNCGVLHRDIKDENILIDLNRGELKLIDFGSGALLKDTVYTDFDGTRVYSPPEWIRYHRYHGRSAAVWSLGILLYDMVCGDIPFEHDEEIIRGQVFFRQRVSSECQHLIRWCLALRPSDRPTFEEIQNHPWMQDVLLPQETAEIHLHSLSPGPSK
Experimental: Reaction Buffer contained 10 mM HEPES, pH 7.2, 10 mM MgCl2, 0.01% Tween 20, 2 mM DTT. Termination Buffer contained 190 mM HEPES, pH 7.2, 0.015% Brij-35, 0.2% Coating Reagent 3 (Caliper Life Sciences, Hopkinton, Mass.), 20 mM EDTA. Separation Buffer contained 100 mM HEPES, pH 7.2, 0.015% Brij-35, 0.1% Coating Reagent 3, 1:200 Coating Reagent 8 (Caliper Life Sciences, Hopkinton, Mass.), 10 mM EDTA and 5% DMSO.
PIM reactions were carried out in a final volume of 10 μL per well in a 384-well plate. […] After 90 minutes of incubation at room temperature, the phosphorylation reaction was stopped by the addition of 10 μL Termination Buffer. The product and substrate in each independent reaction were separated on a 12-sipper microfluidic chip (Caliper Life Sciences, Hopkinton, Mass.) run on a Caliper LC3000® (Caliper Life Sciences, Hopkinton, Mass.). The separation of product and substrate was optimized by choosing voltages and pressure using Caliper's Optimizer software (Hopkinton, Mass.). The separation conditions used a downstream voltage of −500V, an upstream voltage of −2150V, and a screening pressure of −1.2 psi. […] Substrate conversion was calculated from the electropherogram using HTS Well Analyzer software (Caliper Life Sciences, Hopkinton, Mass.). Ki values for the test compound were calculated.

[2] = BaF3 PIM1 cells, incubated overnight, CELL TITER GLO, read-out: Prolif BaF3 PIM1 (IC50)
[3] = BaF3, read-out: Prolif BaF3 PIM1 (IC50), BaF3 PIM1 cells, incubated overnight, CELL TITER GLO

Structure (SMILES) | IC50 (BaF3 PIM1 cells; [2]) [nM] | EC50 [1] [nM] | IC50 (BaF3 PIM1 cells; [3]) [nM] | IC50 (BaF3 parental cells) [µM] | Ki (PIM1) [nM]
C[C@H]1O[C@@H](c2c(NC(=O)c3nc(-c4c(F)cccc4F)sc3N)cnn2C)C[C@@H](N)[C@]1(C)O (single isomer, unassigned) [Example 345] | 6800 | > 25000 | – | > 25 | –
Cn1ncc(NC(=O)c2nc(-c3c(F)cccc3F)sc2N)c1[C@]12CC[C@H](O1)[C@@H](N)CC2 [Example 115, 5-amino-N-(5-((1S,4S,5S)-4-amino-8-oxabicyclo[3.2.1]octan-1-yl)-1-methyl-1H-pyrazol-4-yl)-2-(2,6-difluorophenyl)thiazole-4-carboxamide] | – | – | 19.2 | – | –
Cc1nn(C)c(F)c1-c1nc(C(=O)Nc2cnn(C)c2[C@@H]2CC[C@@H](N)[C@H](F)CO2)cs1 [Example 286, N-(5-((2S,5R,6S)-5-amino-6-fluorooxepan-2-yl)-1-methyl-1H-pyrazol-4-yl)-2-(5-fluoro-1,3-dimethyl-1H-pyrazol-4-yl)thiazole-4-carboxamide] | 947 | 12600 | – | 11.3 | –
C[C@@H]1O[C@H](c2c(NC(=O)c3ccc(F)c(-c4c(F)cccc4F)n3)cnn2C)C[C@H](N)[C@@]1(C)O [Example 344, N-(5-((2S,4S,5R,6S)-4-amino-5-hydroxy-5,6-dimethyltetrahydro-2H-pyran-2-yl)-1-methyl-1H-pyrazol-4-yl)-6-(2,6-difluorophenyl)-5-fluoropicolinamide] | 9000 | 9800 | – | 14 | –
C[C@@H]1O[C@H](c2c(NC(=O)c3nc(-c4c(F)cccc4F)sc3N)cnn2C)C[C@H](N)[C@@]1(C)O [Example 346, 5-amino-N-(5-((2S,4S,5R,6S)-4-amino-5-hydroxy-5,6-dimethyltetrahydro-2H-pyran-2-yl)-1-methyl-1H-pyrazol-4-yl)-2-(2,6-difluorophenyl)thiazole-4-carboxamide] | 517 | 4300 | – | > 25 | –
Cn1ncc(NC(=O)c2csc(-c3n[nH]c4c3CCCC4)n2)c1[C@@H]1CC[C@@H](N)[C@H](F)CO1 [Example 374, N-(5-((2S,5R,6S)-5-amino-6-fluorooxepan-2-yl)-1-methyl-1H-pyrazol-4-yl)-2-(4,5,6,7-tetrahydro-1H-indazol-3-yl)thiazole-4-carboxamide] | – | – | – | 13.1 | 0.023
Cn1ncc(NC(=O)c2csc(-c3cccc4cnn(C)c34)n2)c1[C@@H]1CC[C@@H](N)[C@H](F)CO1 [Example 403, N-[5-[(2S,5R,6S)-5-amino-6-fluoro-oxepan-2-yl]-1-methyl-pyrazol-4-yl]-2-(1-methylindazol-7-yl)thiazole-4-carboxamide] | – | – | – | – | 5.91

The remaining compounds from weak to strong by EC50 [1], led by results:

IC50 (BaF3 PIM1 cells; [2]) [nM] | EC50 [1] [nM] | IC50 (BaF3 PIM1 cells; [3]) [nM] | Structure (SMILES) | IC50 (BaF3 parental cells) [µM] | Ki (PIM1) [nM]
– | 1700 | 348 | Cn1ncc(NC(=O)c2nc(-c3c(Cl)cccc3C(F)(F)F)sc2N)c1[C@@H]1CC[C@@H](N)[C@H](F)CO1 [Example 329, 5-amino-N-(5-((2S,5R,6S)-5-amino-6-fluorooxepan-2-yl)-1-methyl-1H-pyrazol-4-yl)-2-(2-chloro-6-(trifluoromethyl)phenyl)thiazole-4-carboxamide] | 2.4 | –
342 | 781 | – | C[C@H]1O[C@@H](c2c(NC(=O)c3ccc(F)c(-c4c(F)cccc4F)n3)cnn2C)C[C@@H](N)[C@]1(C)O (single isomer, unassigned) [Example 343] | 12.8 | –
126 | 686 | – | Cc1ccc(-c2nc(C(=O)Nc3cnn(C)c3[C@@H]3CC[C@@H](N)[C@H](F)CO3)cs2)c(F)c1 [Example 316, N-(5-((2S,5R,6S)-5-amino-6-fluorooxepan-2-yl)-1-methyl-1H-pyrazol-4-yl)-2-(2-fluoro-4-methylphenyl)thiazole-4-carboxamide] | 9.3 | –
– | 122 | 30.7 | Cn1ncc(NC(=O)c2nc(-c3c(F)cccc3F)sc2N)c1[C@@]12CC[C@H](N)[C@@H](CC1)O2 [Example 117, 5-amino-N-(5-((1R,4S,5R)-4-amino-8-oxabicyclo[3.2.1]octan-1-yl)-1-methyl-1H-pyrazol-4-yl)-2-(2,6-difluorophenyl)thiazole-4-carboxamide] | – | –
